Laboratory results reported in patent US12577232B2, “N-heterocycle substituted tryptamine derivatives and methods of using” (ENVERIC B[…] INC., priority 2024, dated 2026).
Read-outs that look alike come from different tables or passages of the source.

Assays:
[1] = Mouse plasma pharmacokinetics (PK) survey; assay type: in vivo; conditions: for AUC: male, C57BL6, mouse, read-out: AUCt0-tlast; for AUC / Cmax: ip; for Cmax: mouse
Experimental: The purpose of the study was to gain insight into the pharmacokinetic (PK) behaviour of drugs in rodents. In some contexts, drug exposure and other PK parameters may be linked to the onset and/or degree of drug efficacy. Toward the goal of assessing PK behaviour, objectives included the collection of plasma from male mice at various times after (1) a single ‘low’ IP (intraperitoneal) dose (4 mg/kg), and (2) a single ‘high’ IP dose (10 mg/kg) of drug for pharmacokinetic monitoring. The experiment was designed to enable the determination of key parameters (e.g., Cmax, AUC) and was conducted in partnership with Inotiv (Boulder, Colorado; www.inotiv.com; Studies 3533-2302132 and 3533-2302538).
The study which took part in two phases (No. 3533-2302132 and 3533-2302538) was conducted by CRO Inotiv (Boulder, CO) and was performed in accordance with the test facility standard operation procedures (SOPs), the World Health Organization Quality Practices in Basic Biomedical Research guidelines, and in compliance with all US state and federal regulations, including USDA Animal Welfare Act 9 CFR Parts 1-3. Federal Register 39129, Jul. 22, 1993. All mice were male, belonging to stain C57BL6 (supplier Envigo). Upon arrival at the facility, the mice were 6 weeks old and were acclimated 7 days prior to injection with food and water ad libitum (3 animals/cage).
Three cohorts of mice were included (n=6 per cohort): (1) control (vehicle treatment), (2) 4 mg/kg compound (XV), and (3) 10 mg/kg compound (XV). On day 0 of the study, animals were randomized into cohorts based on body weight. Dosing (i.p. dose route) was performed on Day 1. Sampling of plasma was performed under anesthesia (inhaled isoflurane) on 3 of 6 animals per cohort at 6 time points (15 min 30 min, 1 h, 2 h, 4 h, and 6 h post-dose) followed by sacrifice at 8 h post-dose, ex-sanguination and final plasma collection. Whole blood (100 μL) was collected for plasma preparation using K2EDTA on ice (centrifugation within 5 min of collection), for a final plasma volume of 50 μL. Samples were stored at −80° C. until analysis.
Bioanalytical analysis of plasma was carried out using standard LC-MS/MS procedures. Prior to analysis of plasma, drug-specific quantification metrics (e.g., standard curve, LOD, Rt) were pre-established using authentic standard (>95%). Calculated concentrations (ng/mL) of analyte were used to determine PK parameters (Cmax, AUC) within the limits of detection (LOD).

[2] = tested on: human model (NT2) neurons; experiment: Neuroplastogenicity (neurite outgrowth) assay in NT2 neurons; assay type: cell-based; design: key: a positive (+) designation indicating strong evidence of enhanced neurite outgrowth in drug-treated NT2 cells compared to vehicle-treated cells; a negative (−) designation indicating weak or no evidence of enhanced neurite outgrowth in drug-treated NT2 cells compared to vehicle-treated cells; conditions: 1 or 10 μM, 48 h, visual inspection vs vehicle (0.1% DMSO)
Description: Classic psychedelics such as psilocybin and DMT show potential to treat anxiety and depression, and it has been theorized that such long-term improvements arise because these drugs rapidly and lastingly stimulate neuroplasticity (Calder and Hasler, 2023, Neuropsychopharmacol. 48:104-112). Thus, it was of interest to determine the potential of new compounds as neuroplastogens. Herein, we assess the capacity of various compounds to enhance neurite outgrowth in human model (NT2) neurons.
Human NT2/D1 precursor cells were purchased from the American Type Culture Collection (ATCC, Manassas, VA, USA). Neuronal differentiation was carried out as previously described (Roloff et al., 2015, PloS ONE 10:e0118536) with minor modifications. Firstly, NT2/D1 cells were seeded in T-25 suspension culture flasks (REF #690190, Greiner bio-one, Germany). Each flask contains a minimum of 5×10^6 cells in 10 ml of DMEM/F12 supplemented with 10% fetal bovine serum (FBS), 1% penicillin and streptomycin and 10 μM retinoic acid (RA) medium to start neuronal differentiation. The cells were cultured for 3 days in free floating medium. At the end of the incubation cells were trypsinized and collected by centrifugation, mechanically dispersed, and counted. Counted cells were seeded along Poly D-Lysine (PDL) coated cover slips (12 mm; diameter round, Fisher Scientific; GG-12-PDL) containing a minimum of 0.1×10^5 cells in culture medium without RA. The next day culture medium was replaced with RA medium containing 2% of FBS. These cells cultured for 5 days and two days later, RA medium was changed.
After cells had successfully attached and established along coverslips, the RA medium was replaced with new medium containing 2% FBS and one of the following: (1) test compound (1 or 10 μM), (2) RhoK (ROCK) inhibitor Y-27632 (1 μM) as a positive control (Dihydrochloride; Sigma-Aldrich) (Roloff et al., 2015, PloS ONE 10:e0118536); (3) DMT (1 or 10 μM) as a positive control (Calder and Hasler, 2023, Neuropsychopharmacol. 48:104-112), or (4) vehicle (0.1% DMSO) as a negative control. These cells were incubated for 48 hours under standard conditions (370C, 5% CO2). The cells cultured along coverslips were collected after 48 hours of treatment. The coverslips washed with calcium chloride and magnesium chloride-free phosphate buffered saline (PBS) pH 7.4 (Gibco, #70011-044) and fixed in paraformaldehyde (PFA) 4% in PBS (#J61899, thermoscientific) for 15 min at room temperature (RT) and washed three times with 0.01% of Triton-X100 in PBS (PBST) to remove remaining PFA and to permeabilize the cells. Non-specific binding sites were blocked with 5% of Bovine Serum Albumin (BSA) solution (#9048-46-8, Millipore) in PBST for 60 minutes at RT. Rabbit monoclonal antibody β-III-tubulin (1:5,000, ab52623, Abcam) was applied overnight (O/N) at 4° C. Next day cells are washed three times in PBST, neurons were incubated with secondary antibody Donkey anti-rabbit IgG(H+L) Alexa Fluor™ Plus488 (1:5000 #A32790, Invitrogen) for 1 hour at RT. These coverslips were mounted on Gluoromount-G™, with 4′6-diamidino-2′henylindoldihydrochloride (DAPI) (#E141818, Invitrogen). The immunofluorescence images were analyzed using an Olympus VS110 slide scanner microscope.
B-III-Tubulin immunofluorescence was quantified using ImageJ. Briefly, Corrected Total Cell Fluorescence (CTCF) was acquired for at least ˜8-10 representative cells, where CTCF=Integrated Density−[Area of selected cell*Mean Fluorescence of background]. The CTCF values, referred to herein as ‘signal intensities’, were used to calculate overall means±SD for each treatment. One-Way ANOVA was used to compare treatments. Further, the mean of each treatment was compared with the mean of the control treatment (RA-differentiated cells treated with vehicle, 0.1% DMSO) using Dunnett's multiple comparison procedure. […]

5-HT2A receptor = biological target: T1, 5-HT2A receptor (Homo sapiens, UniProt P28223); experiment: Functional cell-based 5-HT2A assay, agonism mode (CHO-K1/5-HT2A, Fluo-8 calcium flux); conditions: CHO-K1/5-HT2A cells
T1 construct: purchased PerkinElmer ES-313-M400UA
T1 sequence (P28223 whole entry): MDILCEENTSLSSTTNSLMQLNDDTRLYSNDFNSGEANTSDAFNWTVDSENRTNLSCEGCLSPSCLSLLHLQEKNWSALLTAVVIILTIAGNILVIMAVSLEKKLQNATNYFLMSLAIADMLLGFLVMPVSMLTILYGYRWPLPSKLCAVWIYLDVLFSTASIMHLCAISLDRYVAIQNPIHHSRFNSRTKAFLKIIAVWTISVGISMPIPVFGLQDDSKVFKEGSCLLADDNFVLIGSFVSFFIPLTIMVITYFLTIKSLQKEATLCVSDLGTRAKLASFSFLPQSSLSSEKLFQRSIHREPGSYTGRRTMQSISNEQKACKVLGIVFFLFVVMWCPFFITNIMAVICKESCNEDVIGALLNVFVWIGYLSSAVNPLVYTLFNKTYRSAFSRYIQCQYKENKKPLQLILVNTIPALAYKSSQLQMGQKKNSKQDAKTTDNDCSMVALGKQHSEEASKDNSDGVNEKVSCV
Experimental: Herein, functional, cell-based assays were conducted to determine (1) agonist potency and efficacy of drugs at the 5-HT2A receptor (agonist mode), and (2) antagonist potency at the 5-HT2A receptor (antagonist mode).
All cells were grown and maintained as a monolayer in Ham's F12 nutrient mix supplemented with 10% fetal bovine serum (FBS) and 400 μg/mL geneticin (G418) all from ThermoFisher Scientific and used according to the manufacturer's instructions. Cells were cultured and incubated at 37° C. in a humidified oxygen atmosphere with 5% CO2. To evaluate the activation of 5-HT2A signal transduction, cells were first seeded in tissue culture-treated, black-walled, clear-bottom 96-well plates (Thermo Scientific) at a density of 40,000 cells/well in 100 pl Ham's F12 nutrient mix supplemented with 2% FBS. Cells were cultured for 24 h in a humidified incubator at 37° C. and 5% CO2. Cells were then loaded with Fluo-8 calcium indicator dye for 1 h at 37° C. and an additional 30 min at room temperature as per the manufacturer's protocol. […] Kinetic increases in intracellular calcium levels were measured immediately after addition of test compounds every 6.4 s for a total of 3 min using the FlexStation 3 multimode microplate reader and SoftMax Pro 7.1 analysis software (Molecular Devices, moleculardevices.com). […] EC50 values were calculated from the normalized data from GraphPad PRISM software.

[3] = plasma, 4 mg/kg, male C57BL6 mice, plasma, 4 mg/kg i.p.
[4] = plasma, 10 mg/kg, male C57BL6 mice, plasma, 10 mg/kg i.p.
[5] = male C57BL6 mice, plasma, 4 mg/kg i.p.
[6] = male C57BL6 mice, plasma, 10 mg/kg i.p.

Row | SMILES | AUC [1, 3] | AUC [1, 4] | Cmax [1, 5] | Cmax [1, 6] | Evidence of neurite outgrowth: Yes (+) or No (−) [2] | detectability in plasma ([1]; most mice, eight hours post-administration, i.p.) | engagement at the 5-HT2A receptor, agonist mode (5-HT2A receptor) | AUCt0-tlast ([1]; male C57BL6 mice, plasma, 4 mg/kg i.p., 4 mg/kg)
1 | CN(C)CCc1c[nH]c2cc(N3CCC3)ccc12 [Compound (XII)] | 39.7 ± 3 ng·h/mL | 145 ± 5.3 ng·h/mL | 92.8 ± 17.2 ng/mL | 302 ± 33.7 ng/mL | + | – | – | –
2 | CN(C)CCc1c[nH]c2cc(F)cc(N3CCOCC3)c12 [Compound (XV)] | 241 ± 71.6 ng·h/mL | 590 ± 30.9 ng·h/mL | 101 ± 4.9 ng/mL | 459 ± 16.4 ng/mL | + | still detectable | agonism | –
3 | CC(C)N(C)CCc1c[nH]c2cc(N3CCOCC3)c(F)cc12 [Compound (XVII)] | 24.2 ± 1.6 ng·h/mL | 164 ± 7.2 ng·h/mL | 62.1 ± 3.9 ng/mL | 384 ± 14.2 ng/mL | + | – | – | 27.2 ± 1.6 ng·h/mL
4 | CN(C)CCc1c[nH]c2cc(N3CCCC3)cc(F)c12 [Compound (XVIII)] | 19.6 ± 0.7 ng·h/mL | 76.4 ± 11.5 ng·h/mL | 8.8 ± 1.2 ng/mL | 87.5 ± 8.5 ng/mL | + | – | – | –
